From US10124065B2, “Lipids and lipid compositions for the delivery of active agents” (Novartis AG, priority 2013, dated 2018)

What was measured:
PLK-1 mRNA = assay: LS411N Xenograft Assay; assay type: in vivo, Nu/Nu mice; conditions: percent knock down of PLK-1 mRNA vs control in LS411N tumors, IV 3 mg/kg daily for three days
Method: Female Nu/Nu mice (6-8 weeks old) were implanted subcutaneously with 5×10^6 LS411N cells. Tumor growth was monitored by caliper measurement before treatment initiation. Mice bearing 150-250 mm^3 subcutaneous tumors were randomized and enrolled in the study. The stock siRNA formulations were diluted to […] with PBS for dosing. Animals enrolled in different groups received a single daily bolus IV injection of 3 mg/kg siRNA for three days. Tumors were harvested 24 hours post last injection to assess target gene regulation by qRT-PCR.
Lipid nanoparticles comprising lipid compounds of formula (I) and the PLK1-424 siRNA duplex sequence listed above were tested in the LS411N Xenograft Assay. The results of this assay are given in Table 5 below as a percent knock down of PLK-1 mRNA as compared to the control when administered as a single daily dose for three days at a dose of 3 mg/kg.

human leptin [1] = assay: Mouse subcutaneous injection of modified synthetic leptin mRNA, human leptin ELISA; assay type: in vivo; conditions: human leptin in mouse plasma, 10 μg leptin mRNA
Method: Prior to subcutaneous injection, mouse body weights were recorded and diet weighted, with mice grouped according to their body weights. The mice were manually restrained and placed on a work surface. Their scruffs were pinched and lifted away from the underlying muscle, the space into which was inserted a 25 gauge needle connected with a 1 ml syringe. The syringe plunger was pulled backwards in such a way as to ensure no fluid was drawn into the syringe, and then the desired volume of leptin mRNA was hand injected with moderate pressure and speed. The needle was then withdrawn and the mice returned to their cages.
(§1) 8-9 week old, male C57BL/6 mice were used for the in vivo study. FPLC purified modified synthetic leptin mRNA (SEQ ID NO: 5) in which the uridines were substituted with pseudouridine (N:P molar ratio=8:1) packaged in multiple cationic lipid were diluted in injectable saline at a dose of 10 μg per average group body weight.
On day 0, animals were weighed and sorted according to average body weight. ice were dosed at 9 AM and blood was taken at 9 AM on day 0. Blood was also taken at 9 AM on each of days 1 and 2 and assessed for leptin protein levels. Body weight and food intake were also recorded.
(§2) Human leptin in mouse plasma was measured by ELISA. Antibodies purchased from the R&D Systems duoset (Cat# DY398E, part#840279 for capture antibody and part#840280 for detection antibody) were reconstituted using PBS and titered, again using PBS. The capture antibody was coated at 4 ug/ml in 30 ul/well on a white Nunc® Maxisorp 384 well plate (Cat#460372). After an overnight incubation at room temperature the capture antibody was aspirated and the plate blocked for 2 hours at room temperature with 90 ul/well of KPL milk blocker (Cat#50-82-00). Once the incubation was completed the plate was aspirated and recombinant standards and samples were added to the plate at 30 ul/well for 2 hours at 37° C. while shaking at 600 rpm. Sample/standard dilutions were made using casein sample diluent. Washing/aspiration 3 times with 100 ul/well followed, using Teknova plate wash solution (Cat# P1192). Next, detection antibody was diluted using casein detection antibody diluent to 12.5 ng/ml and added at 30 ul/well for 2 hours room temperature. After this incubation, the plate was washed again and a solution of poly-streptavidin-HRP (Cat#21140) at a 1:1250 dilution in HRP dilution buffer was added to each well (30 ul/well) and incubated for 30 minutes room temperature. A final wash/aspiration removed the HRP solution and a chemiluminescent substrate was added at 30 ul/well (Cat#1859678 & 1859679). The plate was quickly read using a SpectramaxM5 plate reader with a 50 ms integration time. The dynamic range of the ELISA is from 100-2,000 pg/ml (6.25-125 pM) of human leptin. The assay is applicable to plasma from mice, rats and cynomolgus monkeys.

human leptin [2] = assay: Mouse intravenous tail vein injection of modified synthetic leptin mRNA, human leptin ELISA; assay type: in vivo, C57BL/6 mouse; conditions: human leptin in mouse plasma, 10 μg leptin mRNA, 24 h
Method: Before the tail vein injection, mouse body weights were recorded and diet weighted, with mice grouped according to their body weights. Mice were prepared by warming them under a heating lamp for ˜2 minutes, with the mice about 12 inches from heat lamp.
For the tail vein injection procedure, the mice were placed in a restrainer and their tails cleaned with 70% alcohol. A 27 gauge needle (Becton Dickinson, Catalogue #305109) connected with a 1 ml syringe (Becton Dickinson, Catalogue #309659) was inserted into the tail vein, with bevel facing up, and the syringe plunger was pulled backwards to ensure blood is drawn into the syringe. The desired volume of modified synthetic leptin mRNA was injected by hand with moderate pressure and speed. The needle was then withdrawn and bleeding stopped by adding pressure to injection site with gauze.
as §1, with “Single housed, 8-9” for “8-9”, “pseudouridine was packaged in a cationic lipid” for “pseudouridine”, “and then” for “packaged in multiple cationic lipid”
On day 0, animals were weighed and sorted according to average body weight. Mice were dosed, and food intake (FI) was recorded, on each of days 1-7 and days 9, 11, and 16.
as §2, with “leptin.” for “leptin. The assay is applicable to plasma from mice, rats and cynomolgus monkeys.”

[3] = system: plasma Factor VII enzyme activity; assay: Mouse Factor VII dosing / Factor VII Activity Assay; assay type: in vivo; conditions: percent knock down of plasma Factor VII activity, CD-1 mice, 48 h; for KD FVII 0.03 mg/kg: single IV dose 0.03 mg/kg; for KD FVII 0.3 mg/kg: single IV dose 0.3 mg/kg
In short: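 Female CD-1 mice (~25 g) received a single IV tail-vein dose of lipid-nanoparticle-formulated Factor VII siRNA (0.3 or 0.03 mg/kg). Plasma taken ~48 h later; FVII activity measured chromogenically against vehicle-control plasma standard curve, reported as % knockdown.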

[4] = Particle size of lipid nanoparticle (dynamic light scattering, Malvern Zetasizer); assay type: physicochemical
In short: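 Sizes are average diameters of fully formed nanoparticles measured by dynamic light scattering. Samples were diluted in PBS to a count rate of about 200–400 kcts. Values are intensity-weighted Z-average sizes.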

[5] = Polydispersity index (PDI) of lipid nanoparticle (dynamic light scattering); assay type: physicochemical
Method: Unless indicated otherwise, all PDIs referred to herein are the PDI of the fully formed nanoparticle, as measured by dynamic light scattering on a Malvern Zetasizer. The nanoparticle sample was diluted in phosphate buffered saline (PBS) so that the count rate was approximately 200-400 kcts. The data is presented in Tables 4 and 5 as a weighted average of the intensity measure.

[6] = LNP Chol/DSPC/PEG-DMG 45/44/9/2
[7] = LNP Chol/DSPC/PEG-DSG 45/44/9/2
[8] = FVII siRNA LNP, Chol/DSPC/S010, molar ratio 45/44/9/2, Z-average
[9] = PLK1-424 siRNA LNP, Chol/DSPC/PEG-DSG 45/44/9/2
[10] = FVII siRNA LNP, Chol/DSPC/S010, molar ratio 45/44/9/2
[11] = PLK1-424 siRNA LNP, Chol/DSPC/S010 45/44/9/2

With `CCCCC/C=C\C/C=C\CCCCCCCC(=O)OCCCOc1cc(CN(C)C)cc(OCCCOC(=O)CCCCCCC/C=C\C/C=C\CCCCC)c1` [Example 39, (9Z,9′Z,12Z,12′Z)-((5-((dimethylamino)methyl)-1,3-phenylene)bis(oxy))bis(propane-3,1-diyl)bis(octadeca-9,12-dienoate)] the “LS411 KD 3 × 3 mg/Kg” value (PLK-1 mRNA; LNP Chol/DSPC/S010 45/44/9/2) was 55%, the “Leptin expression SC-C57BI/6, 24 h” value (human leptin [1]) was 0.79 ng/mL and the “Leptin expression IV-C57BI/6, 24 h” value (human leptin [2]) was 10.47 ng/mL.
With `CCCCCCCC(=O)OCCCCCCCCOc1cc(CN(C)C)cc(OCCCCCCCCOC(=O)CCCCCCC)c1` [Example 42, ((5-((dimethylamino)methyl)-1,3-phenylene)bis(oxy))bis(octane-8,1-diyl)dioctanoate] the “LS411 KD 3 × 3 mg/Kg” value (PLK-1 mRNA; LNP Chol/DSPC/S010 45/44/9/2) was 50% and the “KD FVII 0.03 mg/kg” value ([3]; LNP Chol/DSPC/S010 45/44/9/2) was 92.8%.
For `CCCCCCCC(=O)OCCCCCCCCCCOc1cc(CN(C)C)cc(OCCCCCCCCCCOC(=O)CCCCCCC)c1` [Example 43, ((5-((dimethylamino)methyl)-1,3-phenylene)bis(oxy))bis(decane-10,1-diyl)dioctanoate], the “LS411 KD 3 × 3 mg/Kg” value (PLK-1 mRNA; LNP Chol/DSPC/S010 45/44/9/2) was 40%, the “KD FVII 0.3 mg/kg” value [3, 6] was 97.4% and the “Leptin expression SC-C57BI/6, 24 h” value (human leptin [1]) was 0.66 ng/mL. For the same compound, the “Leptin expression IV-C57BI/6, 24 h” value (human leptin [2]) was 13.56 ng/mL.
With `CCCCCCCCCC(=O)OCCCCCCCCOc1cc(CN(C)C)cc(OCCCCCCCCOC(=O)CCCCCCCCC)c1` [Example 52, ((5-((dimethylamino)methyl)-1,3-phenylene)bis(oxy))bis(octane-8,1-diyl)bis(decanoate)] the “LS411 KD 3 × 3 mg/Kg” value (PLK-1 mRNA; [7]) was 69%, the “LS411 KD 3 × 3 mg/Kg” value (PLK-1 mRNA; LNP Chol/DSPC/S010 45/44/9/2) was 50% and the “KD FVII 0.03 mg/kg” value [3, 6] was 72.5%. For the same compound, the “KD FVII 0.03 mg/kg” value ([3]; LNP Chol/DSPC/S010 45/44/9/2) was 73.5%, the “Leptin expression SC-C57BI/6, 24 h” value (human leptin [1]) was 0.85 ng/mL and the “Leptin expression IV-C57BI/6, 24 h” value (human leptin [2]) was 21.18 ng/mL.
With `CCCCCCCCCCCC(=O)OCCCCCCOc1cc(CN(C)C)cc(OCCCCCCOC(=O)CCCCCCCCCCC)c1` [Example 59, ((5-((dimethylamino)methyl)-1,3-phenylene)bis(oxy))bis(hexane-6,1-diyl)didodecanoate] the “KD FVII 0.03 mg/kg” value ([3]; LNP Chol/DSPC/S010 45/44/9/2) was 48.24%, the “Leptin expression SC-C57BI/6, 24 h” value (human leptin [1]) was 1.16 ng/mL and the “Leptin expression IV-C57BI/6, 24 h” value (human leptin [2]) was 8.08 ng/mL.
In the case of `CCCCC/C=C\C/C=C\CCCCCCCC(=O)OCCCCOc1cc(CN(C)C)cc(OCCCCOC(=O)CCCCCCC/C=C\CCCCCCCC)c1` [Example 63, (9Z,12Z)-4-(3-((dimethylamino)methyl)-5-(4-(oleoyloxy)butoxy)phenoxy)butyl octadeca-9,12-dienoate], the “LS411 KD 3 × 3 mg/Kg” value (PLK-1 mRNA; [7]) is reported as 66%, the “KD FVII 0.03 mg/kg” value ([3]; LNP Chol/DSPC/S010 45/44/9/2) is reported as 75% and the “Size (nm)” value [4, 8] is reported as 91.66 nm. For the same compound, the “Size (nm)” value [4, 9] was 108.6 nm, the PDI [5, 10] was 0.057 and the PDI [5, 9] was 0.047.
In the case of `CCCCCCCC(=O)OCC(CCOc1cc(CN(C)C)cc(OCCC(COC(=O)CCCCCCC)OC(=O)CCCCCCC)c1)OC(=O)CCCCCCC` (centres unmarked) [Example 91, 4,4′-((5-((dimethylamino)methyl)-1,3-phenylene)bis(oxy))bis(butane-1,2-diyl)tetraoctanoate], the “LS411 KD 3 × 3 mg/Kg” value (PLK-1 mRNA; LNP Chol/DSPC/S010 45/44/9/2) is reported as 45%, the “KD FVII 0.3 mg/kg” value [3, 6] is reported as 99.0% and the “Size (nm)” value ([4]; FVII siRNA LNP, Chol/DSPC/PEG-DMG, molar ratio 45/44/9/2, Z-average) is reported as 124.3 nm. The “Size (nm)” value [4, 8] was 111.9 nm, the “Size (nm)” value [4, 11] was 136.1 nm and the PDI ([5]; FVII siRNA LNP, Chol/DSPC/PEG-DMG, molar ratio 45/44/9/2) was 0.06. It also gave a PDI [5, 10] of 0.053 and a PDI [5, 11] of 0.032.
